± gives the standard deviation of the averaged measurements.
Assays:
Test in all cases: level (log10 ratio to DMSO vehicle control); higher = higher biomarker level / cell amount than vehicle control
Conditions in all cases: in DMSO
[1] = compound: NS(=O)(=O)C(F)(F)C(F)(F)C(F)(F)C(F)(F)C(F)(F)C(F)(F)F [Perfluorohexanesulfonamide]
Method: (§1)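 BioMAP Diversity Plus panel of 12 human primary cell co-culture systems (3C, 4H, LPS, SAg, BT, BF4T, BE3C, CASM3C, HDF3CGF, KF3CT, MyoF, Mphg). Compounds were added 1 h before stimulation and left for 24 h (MyoF 48 h; BT 72 h for soluble read-outs or 6 d for IgG). Biomarkers were read by ELISA, cytotoxicity by SRB, PBMC viability and proliferation by Alamar Blue. Each well value was divided by the mean of 8 DMSO control wells on the same plate and log10 transformed; duplicate blinded samples were tested at 4 concentrations.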

[2] = compound: NC(=O)C(F)(F)C(F)(F)C(F)(F)C(F)F
Method: as §1

[3] = compound: O=S(=O)(O)C(F)(F)C(F)(F)C(F)(F)C(F)(F)C(F)(F)C(F)(F)C(F)(F)C(F)(F)C(F)(F)C(F)(F)F [Sodium perfluorodecanesulfonate]
Method: as §1

[4] = compound: O=S(=O)(F)C(F)(F)C(F)(F)C(F)(F)C(F)(F)C(F)(F)C(F)(F)C(F)(F)C(F)(F)F [Perfluorooctanesulfonyl fluoride]
Method: as §1

[5] = compound: FC(F)(F)C(F)(F)CNCC(F)(F)C(F)(F)F [Bis(1H,1H-perfluoropropyl)amine]
Method: as §1

Test System | level (log10) ([1]; 6700 nM) | level (log10) ([1]; 20000 nM) | level (log10) ([1]; 60000 nM) | level (log10) ([2]; 6700 nM) | level (log10) ([2]; 20000 nM) | level (log10) ([2]; 60000 nM) | level (log10) ([3]; 1500 nM) | level (log10) ([3]; 4400 nM) | level (log10) ([3]; 13000 nM) | level (log10) ([3]; 40000 nM) | level (log10) ([4]; 6700 nM) | level (log10) ([4]; 20000 nM) | level (log10) ([4]; 60000 nM) | level (log10) ([5]; 6700 nM) | level (log10) ([5]; 20000 nM) | level (log10) ([5]; 60000 nM)
BF4T:CD54/ICAM-1 | -0.015 ± 0.0014 | -0.0375 ± 0.0064 | -0.0645 ± 0.0078 | -0.0105 ± 0.015 | -0.0095 ± 0.022 | -0.0045 ± 0.0021 | -0.019 ± 0.0071 | -0.031 ± 0.016 | -0.014 ± 0.014 | -0.0105 ± 0.025 | -0.002 ± 0.0014 | -0.006 | -0.0045 ± 0.0021 | -0.0035 ± 0.0021 | -0.013 ± 0.0014 | 0.001 ± 0.04
BF4T:CD90 | -0.0055 ± 0.00071 | -0.0085 ± 0.0078 | -0.035 ± 0.0099 | -0.002 ± 0.0085 | -0.0125 ± 0.0092 | 0.001 ± 0.0028 | -0.0085 ± 0.012 | -0.0055 ± 0.005 | -0.0065 ± 0.0035 | 0.002 ± 0.0057 | -0.0065 ± 0.0078 | -0.014 ± 0.0057 | 0.0065 ± 0.0021 | -0.01 ± 0.0085 | -0.004 ± 0.0071 | 0.011 ± 0.018
BF4T:CD106/VCAM-1 | -0.0295 ± 0.022 | -0.104 ± 0.0099 | -0.198 ± 0.013 | -0.015 ± 0.0028 | -0.014 ± 0.0042 | -0.003 ± 0.023 | -0.0095 ± 0.021 | -0.0125 ± 0.069 | -0.096 ± 0.035 | -0.106 ± 0.028 | -0.007 | -0.0355 ± 0.0021 | -0.044 ± 0.031 | -0.034 ± 0.0057 | -0.034 ± 0.017 | 0.008 ± 0.069
BF4T:CXCL8/IL-8 | -0.031 ± 0.052 | -0.051 ± 0.034 | -0.073 ± 0.02 | 0 ± 0.0071 | -0.0105 ± 0.005 | -0.009 ± 0.0071 | 0.0305 ± 0.069 | 0.034 ± 0.0099 | 0.0995 ± 0.021 | 0.136 ± 0.0057 | 0.0175 ± 0.011 | 0.015 ± 0.0028 | 0.0355 ± 0.005 | -0.0295 ± 0.013 | -0.027 ± 0.0028 | -0.0105 ± 0.021
BF4T:IL-1alpha | -0.006 ± 0.0042 | -0.008 ± 0.017 | -0.0675 ± 0.016 | -0.0175 ± 0.021 | -0.004 ± 0.0028 | -0.002 ± 0.0057 | 0.037 ± 0.034 | -0.0165 ± 0.033 | 0.0095 ± 0.011 | -0.0155 ± 0.0064 | -0.0005 ± 0.0064 | -0.0015 ± 0.00071 | 0.0155 ± 0.021 | -0.007 ± 0.014 | -0.0135 ± 0.015 | 0.0105 ± 0.049
BF4T:Keratin 8/18 | -0.01 ± 0.033 | -0.019 ± 0.017 | -0.065 ± 0.067 | 0.004 ± 0.042 | 0.005 ± 0.011 | 0.0135 ± 0.026 | 0.02 ± 0.0071 | 0.005 ± 0.023 | -0.0175 ± 0.015 | -0.044 ± 0.023 | 0.0285 ± 0.033 | 0.003 ± 0.016 | 0.0335 ± 0.0092 | -0.0075 ± 0.0064 | -0.019 ± 0.013 | 0.015 ± 0.03
BF4T:MMP-1 | 0 ± 0.0014 | -0.012 ± 0.0042 | -0.018 ± 0.0014 | 0.003 ± 0.0085 | -0.003 ± 0.0085 | 0.0075 ± 0.0035 | 0.009 ± 0.013 | -0.0095 ± 0.0078 | 0.001 ± 0.0014 | 0.0245 ± 0.005 | -0.0075 ± 0.00071 | -0.0115 ± 0.005 | 0.001 ± 0.0071 | -0.009 ± 0.0071 | -0.0005 ± 0.00071 | 0.01 ± 0.011
BF4T:MMP-3 | -0.0185 ± 0.00071 | -0.011 ± 0.0042 | 0.0695 ± 0.061 | 0.01 ± 0.033 | -0.005 ± 0.047 | 0.0075 ± 0.047 | -0.0175 ± 0.032 | -0.002 ± 0.0099 | 0.0175 ± 0.0078 | 0.054 ± 0.0042 | -0.0015 ± 0.0021 | -0.0095 ± 0.025 | 0.026 ± 0.047 | -0.013 ± 0.0028 | -0.0125 ± 0.0092 | 0.001 ± 0.025
